Literature values in patent US6681132B1, “Sodium magnetic reasonance imaging used in diagnosing tumors and assessing response to treatment” (The Trustees of Columbia University in the City of New York, priority 1999, dated 2004).

Tested on: L cells
Conditions: K+ loss exceeds Na+ gain; cited from earlier work

In the case of `O=C(O)c1nn(Cc2ccc(Cl)cc2Cl)c2ccccc12` [lonidamine], the “effect on total cellular monovalent cations” value is listed as “net reduction”.
